Holding throughout (assay type): cell-based
Experiment [1] relates to ERK1/2 nuclear translocation. Put plainly: Determination of ERK1/2 localization by fluorescence microscopy after TPA stimulation. The following applies: 10 μM, 2 hours, TPA 100 nM, 15 minutes. The method, boiled down: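 HeLa, A2185 and A2352 melanoma cells treated with compounds for 2 h around TPA stimulation, then fixed (4% PFA), permeabilized and stained with anti-ERK antibodies, fluorescent secondaries and DAPI. Nuclear ERK1/2 localization scored by fluorescence microscopy (×40).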

Experiment [2] deals with A2185, A2352, HeLa and MCF7 cells. Description: Viability assay (methylene blue), four cancer lines. The following applies: 72 hours, 1% FCS, in 3 or 4 cell lines, read-out: reduction of cell viability. The protocol: Four cancer cells, A2185, A2352, HeLa and MCF7 were grown in 1% FCS containing 10 μM of either EPE peptide, or Compounds Z56, Z1, Z2 or Z3, for 72 hours. Bars indicate average of 2 independent experiments done in triplicate ±SE. FIG. 8B presents dose response curves for Compounds Z56, Z1 and Z2. A2185 cells were grown in 1% FCS containing DMSO (0.1%) EPE or Scramble (Scr) peptide (10 μM), Compounds Z56, Z1, Z2, Z3 ([…]) or no treatment (FCS 1%) for 72 hours. Empty squares represent individual data points of proliferation. Full squares indicate average proliferation of 2 independent experiments done in triplicate ±SE. Bold horizontal line indicates arbitrary threshold (40%) for what is considered an active compound. Cell viability (as shown in FIGS. 8A and 8B) was measured by staining with methylene blue, and data presents proliferation normalized to DMSO control. […] Cell lysates were analyzed by Western blot with the corresponding antibodies. […]
Cells were seeded at low confluence into 24, 48 or 96-well plates in complete medium. […] Color was extracted by adding 0.1 M HCl (3 hours, 23° C.), and absorbance measured at 595 nm in an ELISA reader. For time course experiments, attached cells were fixed and measured at 0, 24, 48, 72 and 96 hours. […]

The subject of experiment [3] is RSK1 phosphorylation (cytoplasmic target of ERK1/2). Put plainly: Western blot, phosphorylated RSK1. The following applies: 10 μM, 2 hours; TPA; A2185 or HeLa cells. The protocol:
CoIP assay was conducted using αERK1 (C-terminus) antibodies conjugated to protein A/G agarose beads. The precipitates were analyzed by Western blot using the indicated antibodies. Whole cell lysates (WCL) and αIgG-mouse (IgG) are shown as controls. […] Cell extracts were analyzed by Western blot with the indicated antibodies. […] The same extracts described in (B) were subjected to Western blot analysis using αpAkt Abs. The closest molecular weight marker (kDa) is shown on the right of all relevant panels.
Bars indicate average of 2 independent experiments done in triplicate ±SE. […] Empty squares represent individual data points of proliferation. Full squares indicate average proliferation of 2 independent experiments done in triplicate ±SE. […] Cell viability (as shown in FIGS. 8A and 8B) was measured by staining with methylene blue, and data presents proliferation normalized to DMSO control. […] Cell lysates were analyzed by Western blot with the corresponding antibodies. Closest molecular marker is indicated at the right of each panel.
Preparation of Cellular Extracts and Western Blotting:
Cells were grown to 70% confluence and serum starved (0.1% FCS, 16 hours). After treatments, cells were rinsed twice with ice-cold PBS−/− and scraped into RIPA buffer. […]

Consider `O=C(OC1C=CS(=O)(=O)C1)c1ccccc1` (stereo not shown) [Compound Z2], for which the “nuclear accumulation of ERK1/2 upon TPA stimulation” value in experiment [1] (A2185 and A2352 cells) is on record as “inhibited”. Further, the “stimulated nuclear translocation of ERK1/2” value in experiment [1] (A2352, A2185 and HeLa cells) was “significantly reduced”. Moreover, the cytotoxicity at 10 µM in experiment [2] was around 60%. Besides, the “phosphorylation of the cytosolic target RSK1/2” value in experiment [3] is on record as “none of Compounds Z56, Z1, Z2 or Z3 affected”.

Values taken from patent US12286439B2, “Inhibitors of ERK nuclear translocation” (Yeda Research and Development Co. Ltd., priority 2018, dated 2025).
